Reference: patent US9499550B2 (BRISTOL-MYERS SQUIBB COMPANY, priority 2012, dated 2016)
Read-outs that look alike come from different tables or passages of the source.

Columns and labels:
[1] = tested on: HCV genotype 1b (Con1) replicon in HUH-7 cells; test: HCV replicon luciferase reporter assay, genotype 1b; format: cell-based; settings: Hepatitis C virus, Huh-7, 72 h, HCV genotype 1b replicon luciferase assay, 3 days incubation
Text: (§1) Generation of HCV Replicon
An HCV replicon whole cell system was established as described by Lohmann V, Korner F, Koch J, Herian U, Theilmann L, Bartenschlager R., Science 285(5424):110-3 (1999) and modified to introduce a luciferase reporter, as first described by Krieger et al (Krieger N, Lohmann V, and Bartenschlager R, J. Virol. 75(10):4614-4624 (2001)). CDNA encoding a humanized form of the Renilla luciferase gene and a linker sequence fused directly to the 3′-end of the luciferase gene were introduced into the replicon construct using an Asc1 restriction site located in core, directly upstream of the neomycin marker gene. The adaptive mutation at position 1179 (serine to isoleucine) was also introduced (Blight K J, Kolykhalov, A A, Rice, C M, Science 290(5498):1972-1974). A stable cell line constitutively expressing this HCV replicon construct was generated by first linearizing plasmid DNAs with ScaI. RNA transcripts were synthesized in vitro using the T7 MegaScript transcription kit (Ambion, Austin, Tex.) according to manufacturer's directions. In vitro transcripts of the cDNA were transfected into the human hepatoma cell line, HUH-7. […] Resulting cell lines were characterized for positive and negative strand RNA production and protein production over time. […]
(§2) HCV Replicon Luciferase Reporter Assay
(§3) HCV replicon luciferase assays were developed to monitor the inhibitory effects of compounds described in the disclosure on HCV genotypes 1a and 1b viral replication. HUH-7 cells, constitutively expressing the HCV replicon, were grown in Dulbecco's Modified Eagle Media (DMEM) (Gibco-BRL) containing 10% Fetal calf serum (FCS) (Sigma) and 1 mg/mL G418 (Gibco-BRL). Compounds were serially diluted 3 folds in DMSO for a twenty-point titration and subsequently transferred to sterile 384-well tissue-culture treated plates (Corning cat #3571). The plates were then seeded with 50 μL of cells at a density of 3.0×10^3 cells/well in DMEM containing 4% FCS (final DMSO concentration at 0.5%). After 3 days incubation at 37° C., cells were analyzed for Renilla Luciferase activity using the EnduRen as substrate (Promega cat #E6485). The EnduRen substrate was diluted in DMEM and then added to the plates to a final concentration of 7.5 μM. The plates were incubated for 2 hrs at 37° C. and then read immediately for 30 seconds with Viewlux Imager (PerkinElmer) using a luminescence program. To assess cytotoxicity of compounds, CC50 values were generated by multiplexing the EnduRen-containing plates with Cell Titer-Blue (Promega, cat # G8082). Cell-Titer Blue (3 μL) was added to each well and incubated for 8 hrs at 37° C. The fluorescence signal from each well was read, with an excitation wavelength at 525/10 nm and an emission wavelength of 598/10 nm, using the Viewlux Imager.
(§4) The EC50 values for compounds were calculated by using a four-parameter logistic equation: y=A+((B−A)/(1+((C/x)^D))), where A and B denotes minimal and maximal % inhibition, respectively, C is the EC50, D is the hill slope and x represents compound concentration.

[2] = tested on: HCV genotype 1a (H77 strain) replicon in HUH-7 cells; test: HCV replicon luciferase reporter assay, genotype 1a; format: cell-based; settings: Hepatitis C virus, Huh-7, 72 h, HCV genotype 1a replicon luciferase assay, 3 days incubation
Text: as §1
An HCV replicon whole cell system was established as described by Lohmann V, Korner F, Koch J, Herian U, Theilmann L, Bartenschlager R., Science 285(5424):110-3 (1999) and modified to introduce a luciferase reporter, as first described by Krieger et al (Krieger N, Lohmann V, and Bartenschlager R, J. Virol. 75(10):4614-4624 (2001)). CDNA encoding a humanized form of the Renilla luciferase gene and a linker sequence fused directly to the 3′-end of the luciferase gene were introduced into the replicon construct using an Asc1 restriction site located in core, directly upstream of the neomycin marker gene. The adaptive mutation at position 1179 (serine to isoleucine) was also introduced (Blight K J, Kolykhalov, A A, Rice, C M, Science 290(5498):1972-1974). A stable cell line constitutively expressing this HCV replicon construct was generated by first linearizing plasmid DNAs with ScaI. RNA transcripts were synthesized in vitro using the T7 MegaScript transcription kit (Ambion, Austin, Tex.) according to manufacturer's directions. In vitro transcripts of the cDNA were transfected into the human hepatoma cell line, HUH-7. […] Resulting cell lines were characterized for positive and negative strand RNA production and protein production over time.
A stable HCV replicon luciferase reporter cell line representing the genotype 1a H77 strain (Yanagi M, Purcell R H, Emerson S U, et al. Transcripts from a single full-length cDNA clone of hepatitis C virus are infectious when directly transfected into the liver of a chimpanzee. Proc Natl Acad Sci USA 1997; 94(16):8738-8743) was generated as described previously for the genotype 1b(Con1) replicon luciferase cell line. The replicon construct was modified by introducing mutations were introduced into the genes encoding the NS3 helicase domain (proline replaced by leucine at position 1496) and NSSA (serine to isoleucine at position 2204) to improve replication in cell culture.
as §2, §3, §4

[3] = range class, read-out: LE_1b (EC50, range)
[4] = range class, read-out: LE_1a (EC50, range)

SMILES	EC50 [1, 3] [nM]	EC50 [2, 4] [nM]	EC50 ([1]; read-out: LE_1b (EC50)) [nM]	EC50 ([2]; read-out: LE_1a (EC50)) [nM]
COc1cnc(O[C@@H]2C[C@H]3C(=O)N[C@]4(C(=O)NS(=O)(=O)C5(F)CC5)C[C@H]4/C=C\CC[C@@H](C)C[C@@H](C)[C@H](NC(=O)OC(C)(C)C(F)(F)F)C(=O)N3C2)c2ccccc12 [Compound 14, 1,1,1-trifluoro-2-methylpropan-2-yl((2R,6S,7R,9R,13aS,14aR,16aS,Z)-14a-(((1-fluorocyclopropyl)sulfonyl)carbamoyl)-2-((4-methoxyisoquinolin-1-yl)oxy)-7,9-dimethyl-5,16-dioxo-1,2,3,5,6,7,8,9,10,11,13a,14,14a,15,16,16a-hexadecahydrocyclopropa[e]pyrrolo[1,2-a][1,4]diazacyclopentadecin-6-yl)carbamate]	< 5.46	< 5.46	–	–
COc1cnc(O[C@@H]2C[C@H]3C(=O)N[C@]4(C(=O)NS(=O)(=O)C5(F)CC5)C[C@H]4/C=C\CC[C@H](C)C[C@@H](C)[C@H](NC(=O)OC(C)(C)C(F)(F)F)C(=O)N3C2)c2ccccc12 [Compound 15, 1,1,1-trifluoro-2-methylpropan-2-yl((2R,6S,7R,9S,13aS,14aR,16aS,Z)-14a-(((1-fluorocyclopropyl)sulfonyl)carbamoyl)-2-((4-methoxyisoquinolin-1-yl)oxy)-7,9-dimethyl-5,16-dioxo-1,2,3,5,6,7,8,9,10,11,13a,14,14a,15,16,16a-hexadecahydrocyclopropa[e]pyrrolo[1,2-a][1,4]diazacyclopentadecin-6-yl)carbamate]	< 5.46	< 5.46	–	–
CCOc1cnc(O[C@@H]2C[C@H]3C(=O)N[C@]4(C(=O)NS(=O)(=O)C5CC5)C[C@H]4/C=C\CC[C@@H](C)C[C@@H](C)[C@H](NC(=O)OC(C)(C)C)C(=O)N3C2)c2ccccc12 [Compound 16, tert-butyl ((2R,6S,7R,9R,13aS,14aR,16aS,Z)-14a-((cyclopropylsulfonyl)carbamoyl)-2-((4-ethoxyisoquinolin-1-yl)oxy)-7,9-dimethyl-5,16-dioxo-1,2,3,5,6,7,8,9,10,11,13a,14,14a,15,16,16a-hexadecahydrocyclopropa[e]pyrrolo[1,2-a][1,4]diazacyclopentadecin-6-yl)carbamate]	< 5.46	< 5.46	–	–
CCOc1cnc(O[C@@H]2C[C@H]3C(=O)N[C@]4(C(=O)NS(=O)(=O)C5CC5)C[C@H]4/C=C\CC[C@@H](C)C[C@@H](C)[C@H](NC(=O)OC(C)(C)C(F)(F)F)C(=O)N3C2)c2ccccc12 [Compound 18, 1,1,1-trifluoro-2-methylpropan-2-yl((2R,6S,7R,9R,13aS,14aR,16aS,Z)-14a-((cyclopropylsulfonyl)carbamoyl)-2-((4-ethoxyisoquinolin-1-yl)oxy)-7,9-dimethyl-5,16-dioxo-1,2,3,5,6,7,8,9,10,11,13a,14,14a,15,16,16a-hexadecahydrocyclopropa[e]pyrrolo[1,2-a][1,4]diazacyclopentadecin-6-yl)carbamate]	< 5.46	< 5.46	–	–
CC(C)Oc1cnc(O[C@@H]2C[C@H]3C(=O)N[C@]4(C(=O)NS(=O)(=O)C5CC5)C[C@H]4/C=C\CC[C@@H](C)C[C@@H](C)[C@H](NC(=O)OC(C)(C)C(F)(F)F)C(=O)N3C2)c2ccccc12 [Compound 20, 1,1,1-trifluoro-2-methylpropan-2-yl((2R,6S,7R,9R,13aS,14aR,16aS,Z)-14a-((cyclopropylsulfonyl)carbamoyl)-2-((4-isopropoxyisoquinolin-1-yl)oxy)-7,9-dimethyl-5,16-dioxo-1,2,3,5,6,7,8,9,10,11,13a,14,14a,15,16,16a-hexadecahydrocyclopropa[e]pyrrolo[1,2-a][1,4]diazacyclopentadecin-6-yl)carbamate]	< 5.46	< 5.46	–	–
C[C@@H]1CC/C=C\[C@@H]2C[C@@]2(C(=O)NS(=O)(=O)C2CC2)NC(=O)[C@@H]2C[C@@H](Oc3ncc(OC4CC4)c4ccccc34)CN2C(=O)[C@@H](NC(=O)OC(C)(C)C)[C@H](C)C1 [Compound 22, tert-butyl ((2R,6S,7R,9R,13aS,14aR,16aS,Z)-2-((4-cyclopropoxyisoquinolin-1-yl)oxy)-14a-((cyclopropylsulfonyl)carbamoyl)-7,9-dimethyl-5,16-dioxo-1,2,3,5,6,7,8,9,10,11,13a,14,14a,15,16,16a-hexadecahydrocyclopropa[e]pyrrolo[1,2-a][1,4]diazacyclopentadecin-6-yl)carbamate]	< 5.46	< 5.46	0.4	0.43
C[C@@H]1CC/C=C\[C@@H]2C[C@@]2(C(=O)NS(=O)(=O)C2CC2)NC(=O)[C@@H]2C[C@@H](Oc3ncc(OC4CC4)c4ccccc34)CN2C(=O)[C@@H](NC(=O)OC(C)(C)C(F)(F)F)[C@H](C)C1 [Compound 24, 1,1,1-trifluoro-2-methylpropan-2-yl((2R,6S,7R,9R,13aS,14aR,16aS,Z)-2-((4-cyclopropoxyisoquinolin-1-yl)oxy)-14a-((cyclopropylsulfonyl)carbamoyl)-7,9-dimethyl-5,16-dioxo-1,2,3,5,6,7,8,9,10,11,13a,14,14a,15,16,16a-hexadecahydrocyclopropa[e]pyrrolo[1,2-a][1,4]diazacyclopentadecin-6-yl)carbamate]	< 5.46	< 5.46	–	–
C[C@H]1CC/C=C\[C@@H]2C[C@@]2(C(=O)NS(=O)(=O)C2CC2)NC(=O)[C@@H]2C[C@@H](Oc3ncc(OC4CC4)c4ccccc34)CN2C(=O)[C@@H](NC(=O)OC(C)(C)C(F)(F)F)[C@H](C)C1 [Compound 25, 1,1,1-trifluoro-2-methylpropan-2-yl((2R,6S,7R,9S,13aS,14aR,16aS,Z)-2-((4-cyclopropoxyisoquinolin-1-yl)oxy)-14a-((cyclopropylsulfonyl)carbamoyl)-7,9-dimethyl-5,16-dioxo-1,2,3,5,6,7,8,9,10,11,13a,14,14a,15,16,16a-hexadecahydrocyclopropa[e]pyrrolo[1,2-a][1,4]diazacyclopentadecin-6-yl)carbamate]	4.82 to 103	4.82 to 103	–	–
COc1cnc(O[C@@H]2C[C@H]3C(=O)N[C@]4(C(=O)NS(=O)(=O)C5CC5)C[C@H]4/C=C\CC[C@@H](C)C[C@@H](C)[C@H](NC(=O)OC(C)(C)C(F)(F)F)C(=O)N3C2)c2cccc(Cl)c12 [Compound 27, 1,1,1-trifluoro-2-methylpropan-2-yl((2R,6S,7R,9R,13aS,14aR,16aS,Z)-2-((5-chloro-4-methoxyisoquinolin-1-yl)oxy)-14a-((cyclopropylsulfonyl)carbamoyl)-7,9-dimethyl-5,16-dioxo-1,2,3,5,6,7,8,9,10,11,13a,14,14a,15,16,16a-hexadecahydrocyclopropa[e]pyrrolo[1,2-a][1,4]diazacyclopentadecin-6-yl)carbamate]	< 5.46	< 5.46	–	–
